The text below walks through data of paper PMC3265293, “Artificial 64-Residue HIV-1 Enhancer-Binding Peptide Is a Potent Inhibitor of Viral Replication in HIV-1-Infected Cells” (Advances in Virology, 2011).

Where no end group is shown, it is not given here.

The test system of one data set is CEM-GFP cells. In words: MTT assay of PMA-stimulated CEM-GFP cells. Format: cell-based, human. Particulars: PMA and increasing concentrations of peptide, after 48 h. The procedure: After 48 h, cell growth-inhibitory effects of the peptides and PMA were assessed using the 3-[4,5-dimethylthiazol-2-yl]-2,5-diphenyltetrazolium bromide (MTT) assay.
For orientation: Formazan colour is commonly taken as a measure of viable cells.

Another data set concerns plasma membrane. Also on record: method as in earlier work. Conditions: ref earlier work; cited from earlier work.

Consider “GKTKRPRFGKTKRPRVGQQSIEQLENGKTKRPRFGKTKRPRY [R42]”, for which, in the data set with CEM-GFP cells, the “cytotoxicity (MTT assay)” value was “not observed”. Also, the “ability to pass the plasma membrane” value in the data set on plasma membrane is “not able to pass the plasma membrane”.
